The values below come from patent US11992011B2, “Compounds for controlling plant pathogens” (VIB VZW, priority 2017, dated 2024).

Assay type in all cases: in vivo
Test [1] has as its system Pseudomonas syringae (pv. DC3000). As to the kind of experiment: Pseudomonas syringae infection experiment in tomato (Example 21). The conditions noted are these: PA foliar spray. How it is done:
Tomato plants (Solanum lycopersicum cv. Moneymaker) were grown in potting soil as described in the plant materials section until the fourth leaf stage. Plants were treated with a piperonylic acid or control spray as described in the chemicals section. Twenty-four hours before inoculation, the tomato plants were placed in a sealed cloche to keep humidity at 100%.
A glycerol stock of P. syringae pv. DC3000 kept at−80° C. was spotted on petri dishes containing King's B agar amended with 75 μg/ml rifampicine (Duchefa Biochemie, Haarlem, the Netherlands). The plates were incubated in the dark at 28° C. for one week. At this time point, glass test tubes containing 5 ml of liquid King's B each (without rifampicin) were inoculated with cells from the plates and placed on an orbital shaker at 200 rpm for 24 hours at 28° C. 100 μl of this liquid inoculum was transferred to fresh glass test tubes containing 5 ml of liquid King's B each (without rifampicin), which were placed on an orbital shaker at 200 rpm for 24 hours at 28° C.
At this time point, the liquid culture was diluted with fresh King's B medium to an OD of 1.0. This medium was then centrifuged at 3000 rpm for ten minutes; the supernatant was discarded and the cells were resuspended in 10 mM MgSO4 to an OD of 0.20. To this inoculum, 0.01 v/v % Silwet 77 surfactant was added.
Whole tomato plants were inoculated by briefly dipping them in a beaker of the aforementioned inoculum. After dipping, plants were placed back in the sealed cloche for 12 hours. […]
Due to the difference in disease progression, two different scoring systems were used. In the first experiment, the number of lesions per plant was counted three days after inoculation and the percentage of leaf area covered by lesions was quantified using the ImageJ software after seven days. In the second experiment, each fully developed leaf was scored on a disease scale between 0 and 4 as follows: 0=no visible symptoms; 1=isolated lesions; 2=large lesions, covering <50% of leaf area; 3=lesions covering more than half of the leaf area; 4=leaf irreversibly shriveled or abscised. […]

In test [2] the test system is Pratylenchus penetrans. The test is described as follows: Pratylenchus penetrans infection in wheat cv. Sahara (Example 10). The conditions noted are these: PA foliar spray. As to the method:
For Examples 1, 5 and 10, seeds of the winter wheat cultivar Sahara (Aveve Agrarisch, Landen, Belgium) were used. Seeds were washed in a 10% ethanol solution to remove any residual traces of fungicide and then germinated on wet paper at room temperature for four days; seeds were transferred to SAP tubes and placed in a growth chamber (25° C., 16 hours per day of light). Plants were watered with 8 ml of half-strength Hoagland solution every two days for the first ten days and with 8 ml of full strength Hoagland solution every two days afterwards.
A pure culture of P. penetrans grown on carrot disks was kindly provided by Giuseppi Lucarelli (Horto Service, Noicattaro, Italy). The nematodes were multiplied by inoculating approximately 100 nematodes on a sterilized carrot disk, placing this disk in a sealed petri dish and incubating the dish at 24° C. for six weeks in the dark. Carrots were sterilized by washing and peeling them, then dipping them in ethanol and finally burning the ethanol off in a Bunsen burner.
(§1) Unless otherwise mentioned, all chemicals for nematode experiments were applied as a foliar spray consisting of the target compound at a concentration of 300 μM together with 0.1% (v/v) Tween 20 surfactant (Calbiochem) in distilled water. Again unless otherwise mentioned, all treatments for the nematode experiments were carried out three times: one and eight days before pathogen inoculation and seven days after pathogen inoculation. In all cases, plants were sprayed until run-off with an atomizer.
Infection experiments with P. penetrans were performed by inoculating host plants 14 days after transfer to SAP by introducing 500 nematodes to their root system using a micro pipette. Plants were harvested 31 days after inoculation. At this point, the plants were phenotyped. Lesions were counted manually using a magnifying glass after washing and spreading open the root system. Nematodes were counted by macerating the root systems with a kitchen blender, placing a root system in 30 ml of autoclaved tap water for 24 hours and finally counting the number of nematodes in four 500 μl aliquots from each 30 ml root suspension under a binocular microscope.

For test [3], the system named is Meloidogyne graminicola. The test is described as follows: Meloidogyne graminicola infection in rice cv. Kitaake, additional C4H inhibitors (Example 6). The note with it: foliar spray, N=8. As to the method: as §1
Infection experiments with M. graminicola were performed by inoculating host plants 14 days after transfer to SAP by introducing the desired amount of J2 juveniles next to the root system using a micro pipette. Rice plants (cv. Nipponbare or Kitaake) were inoculated with 250 J2 juveniles per plant; wheat plants (cv. Sahara) were inoculated with 600 J2 juveniles per plant. Plants were harvested 14 days after inoculation. At this point, the plants were phenotyped by measuring the shoot and root length with a ruler, counting the number of adventitious roots and in some experiments by measuring leaf area using the EasyLeafArea software (Easlon and Bloom, 2014) and by determining shoot dry mass after 72 hours of drying in an oven at 70° C. Root systems were then stained in acid fuchsine as described in (Byrd et al., 1983) and left to destain in glycerol with 1 ml/l fuming HCl added for approximately ten days. The number of galls and nematodes was then counted using a binocular microscope.
Four different C4H inhibitors were used: piperonylic acid (PA), piperine (PIP), 4-propynyloxybenzoic acid (4PB) and 3-(4-pyridyl)acrylic acid (3PA).

Setting [4] is: infected wheat, mean ± SD, n = 8.

Take `O=C(O)c1ccc2c(c1)OCO2` [PA, Piperonylic acid]: the “mean percentage of leaf area covered by lesions” value in test [1] (first experiment, after seven days) is on record as “reduced”. Moreover, the “change of total number of lesions per plant” value in test [1] (first experiment, three days after inoculation, vs control) is listed as −25%. Besides, the “reduction of mean plant disease index” value in test [1] (second experiment, scale 0 to 4) came to 20%. Also, in test [2] (setting [4]), the Number of lesions turned out to be 14.4 ± 6.8 and the “Number of nematodes per root system” value is 165.6 ± 61.1. In addition, in test [2] (wheat, vs control), the “change of mean number of P. penetrans nematodes found in the root system” value is listed as −32% and the “change of mean number of root lesions in the host plant” value is reported as −39%. Besides, the “reduction in the number of galls compared to the control group” value in test [3] is −40%.
